For 13 molecules, Papp A→B results are on record in patent publication US20200131669A1, “CYCLIC PEPTIDE COMPOUND HAVING HIGH MEMBRANE PERMEABILITY, AND LIBRARY CONTAINING SAME” (Chugai Seiyaku Kabushiki Kaisha, priority 2017, published 2020).

Starred links: 1 amine or outer side, 2 acyl side, 3 side chain; linkers in the order of their positions; H or OH if unused. Positions of bridges follow the written chain, without caps; N, C: chain ends. Non-standard residues stand in square brackets, D forms with d. Residues, ends and D or L forms follow the SMILES beside them. ξ: configuration not given here. *: point of attachment. X19 = CC(C)[C@@H](C(=O)C[C@H](C(=O)[*:2])[C@@H](C)O)N(C)[*:1]; NMeAbu(3,3-F2-piperidino) = CN[C@@H](CCN1CCCC(F)(F)C1)C(=O)O; Phe(4-CF3) = N[C@@H](Cc1ccc(C(F)(F)F)cc1)C(=O)O; 3Pal(6-NMe2) = CN(C)c1ccc(C[C@H](N)C(=O)O)cn1; NMePhe(3-Cl) = CN[C@@H](Cc1cccc(Cl)c1)C(=O)O; NMeF = CN[C@@H](Cc1ccccc1)C(=O)O; NMeI = CC[C@H](C)[C@H](NC)C(=O)O; NMeD = CN[C@@H](CC(=O)O)C(=O)O; NMeL = CN[C@@H](CC(C)C)C(=O)O; ξNMeF = CNC(Cc1ccccc1)C(=O)O; NMeV = CN[C@H](C(=O)O)C(C)C; NMeA = CN[C@@H](C)C(=O)O; Piperidide = C1CCN(*)CC1; NBuGly = CCCCNCC(=O)O; Ethyl(2-OH) = OCC*; X2 = Fc1cncc(C*)c1; Sar = CNCC(=O)O; tBu = CC(C)(C)*; CHF2 = FC(F)*

The nature of one series: Caco-2 membrane permeability, improved method as used in the following Examples (96-well, 20 to 24 h preincubation). It counts as in vitro ADME. The settings on record: human, Caco-2, Caco-2. A digest of the protocol: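 Papp (cm/sec) was derived from LC/MS of basal samples collected 180 min after apical dosing in FaSSIF/HBSS pH 6.0 with 1% DMSO, against a basal HBSS pH 7.4 receiver containing 4% BSA. Three-week Caco-2 cultures were first preincubated with compound in DMEM+FaSSIF at 37 °C for 20–24 h.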
For orientation: Caco-2 monolayers are a common model of the intestinal barrier.
In the case of `CC[C@H](C)[C@@H]1NC(=O)[C@H](CC(C)C)N(C)C(=O)CN(C)C(=O)C[C@@H](C(=O)N2CCCCC2)NC(=O)[C@H](C(C)C)N(C)C(=O)[C@H](Cc2ccc(OC(F)F)cc2)NC(=O)[C@H](CC(C)C)N(C)C(=O)[C@H](Cc2ccccc2)N(C)C(=O)CN(C)C(=O)[C@H]([C@@H](C)O)NC(=O)[C@H](CC(C)C)N(C)C1=O` [pd481] ([Sar][NMeL]I[NMeL]T[Sar][NMeF][NMeL]Y(CHF2)[NMeV]D-Piperidide; lactam N-11), the Papp A→B at 180 min came to 3.8 ×10⁻⁶ cm/s. Take `CCCCN1CC(=O)N(C)[C@@H](C)C(=O)N[C@H](C(=O)N2CCCCC2)CC(=O)N(C)[C@@H](C(C)C)C(=O)N[C@@H](CC(C)C)C(=O)N(C)[C@@H](CC(C)C)C(=O)N(C)[C@@H](Cc2cccc(Cl)c2)C(=O)N[C@@H](Cc2ccc(N(C)C)nc2)C(=O)N(C)[C@@H](C)C(=O)N(C)[C@@H](CC(C)C)C(=O)N[C@@H]([C@@H](C)O)C1=O` [pd399] ([NMeV]L[NMeL][NMePhe(3-Cl)][3Pal(6-NMe2)][NMeA][NMeL]T[NBuGly][NMeA]D-Piperidide; lactam N-11): the Papp A→B at 180 min stood at 1.5 ×10⁻⁶ cm/s. Consider `CCCCN1CC(=O)N(C)[C@@H](CC(C)C)C(=O)N[C@@H](COC(C)(C)C)C(=O)N(C)[C@@H](Cc2ccccc2)C(=O)N(C)[C@@H](C(C)C)C(=O)N[C@H](C(=O)N2CCCCC2)CC(=O)N[C@H](C)C(=O)N(C)[C@@H](Cc2ccccc2)C(=O)N[C@@H](CC(C)C)C(=O)N(C)[C@@H](CCN2CCCC(F)(F)C2)C(=O)N[C@@H]([C@@H](C)O)C1=O` [pd386] ([dA][NMeF]L[NMeAbu(3,3-F2-piperidino)]T[NBuGly][NMeL]S(tBu)[NMeF][NMeV]D-Piperidide; lactam N-11), for which the Papp A→B at 180 min amounted to 2.3 ×10⁻⁶ cm/s.

In the case of `CC(C)C[C@H]1C(=O)N[C@@H](COC(C)(C)C)C(=O)N(C)[C@@H](Cc2ccccc2)C(=O)N(C)[C@@H](C(C)C)C(=O)N[C@H](C(=O)N2CCCCC2)CC(=O)N[C@H](C)C(=O)N(C)[C@@H](Cc2ccccc2)C(=O)NC(COc2cccc(Cl)c2)C(=O)N(C)[C@@H](C(C)C)C(=O)N[C@@H]([C@@H](C)O)C(=O)N(C)CC(=O)N1C` (stereo partly shown) [pd343], the Papp A→B at 180 min stood at 2.2 ×10⁻⁶ cm/s. `CC[C@H](C)[C@H]1C(=O)N[C@@H](COCCO)C(=O)N(C)CC(=O)N(C)[C@@H](CC(C)C)C(=O)N[C@H](C(=O)N2CCCCC2)CC(=O)N(C)[C@@H](C)C(=O)N[C@@H](CC(C)C)C(=O)N(C)[C@@H](CC(C)C)C(=O)N(C)[C@@H](Cc2ccccc2)C(=O)N[C@@H](CC(C)C)C(=O)N(C)[C@@H](Cc2ccccc2)C(=O)N1C` [pd499] ([NMeA]L[NMeL][NMeF]L[NMeF][NMeI]S(Ethyl(2-OH))[Sar][NMeL]D-Piperidide; lactam N-11): the Papp A→B at 180 min worked out at 4.7 ×10⁻⁶ cm/s. Still for that read-out and setting: under `CC[C@H](C)[C@H]1C(=O)N[C@@H]([C@@H](C)O)C(=O)N(C)CC(=O)N(C)[C@@H](C)C(=O)N[C@H](C(=O)N2CCCCC2)CC(=O)N(C)[C@@H](C)C(=O)N[C@@H](C(C)C)C(=O)N(C)[C@@H](CC(C)C)C(=O)N(C)[C@@H](Cc2ccccc2)C(=O)NC(COc2cccc(Cl)c2)C(=O)N(C)[C@@H](Cc2ccccc2)C(=O)N1C` (stereo partly shown) [pd345] stands 1.8 ×10⁻⁶ cm/s.

The series is the same for the next values; noted with them: human, Caco-2, Caco-2 (cm/sec).
`CC(C)C[C@H]1C(=O)N[C@@H](COC(C)(C)C)C(=O)N(C)[C@@H](Cc2ccccc2)C(=O)N(C)[C@@H](C(C)C)C(=O)N[C@H](C(=O)N2CCCCC2)CC(=O)N[C@H](C(C)C)C(=O)N(C)C(Cc2ccccc2)C(=O)N[C@@H](COCc2cncc(F)c2)C(=O)N(C)[C@@H](CC(C)C)C(=O)N[C@@H]([C@@H](C)O)C(=O)N(C)CC(=O)N1C` (stereo partly drawn) [pd180] ([dV][ξNMeF]S(X2)[NMeL]T[Sar][NMeL]S(tBu)[NMeF][NMeV]D-Piperidide; lactam N-11): the Papp A→B at 180 min was determined as 2.4 ×10⁻⁶ cm/s. Same read-out and setting: then `CC(C)C[C@@H]1NC(=O)[C@H](Cc2ccccc2)N(C)C(=O)[C@H](COC(C)(C)C)NC(=O)[C@H](Cc2ccccc2)N(C)C(=O)[C@H](C)N(C)C(=O)[C@H](CC(C)C)N(C)C(=O)[C@H](C)N(C)C(=O)C[C@@H](C(=O)N2CCCCC2)N(C)C(=O)[C@H](Cc2ccccc2)N(C)C(=O)[C@H]([C@@H](C)O)CC(=O)[C@H](C(C)C)N(C)C1=O` [pd213] ([NMeA][NMeL][NMeA][NMeF]S(tBu)[NMeF]L[X19][NMeF][NMeD]-Piperidide; lactam N-10), with 1.3 ×10⁻⁶ cm/s; and `CC(C)C[C@H]1C(=O)N(C)[C@@H](C)C(=O)N(C)[C@@H](Cc2ccccc2)C(=O)N[C@@H]([C@@H](C)O)C(=O)N(C)[C@@H](CC(C)C)C(=O)N[C@@H](Cc2ccc(C(F)(F)F)cc2)C(=O)N2CCC[C@H]2C(=O)N[C@H](C(=O)N2CCCCC2)CC(=O)N1C` [pd135] ([NMeL][NMeA][NMeF]T[NMeL][Phe(4-CF3)]PD-Piperidide; lactam N-8), with 1.3 ×10⁻⁶ cm/s; and `CC(C)C[C@H]1C(=O)N[C@@H](COC(C)(C)C)C(=O)N(C)[C@@H](Cc2ccccc2)C(=O)N(C)[C@@H](CC(C)C)C(=O)N[C@H](C(=O)N2CCCCC2)CC(=O)N[C@@H](C)C(=O)N(C)[C@@H](Cc2cccc(Cl)c2)C(=O)N[C@@H](C(C)C)C(=O)N(C)[C@@H](C(C)C)C(=O)N[C@@H]([C@@H](C)O)C(=O)N(C)CC(=O)N1C` [pd154] (A[NMePhe(3-Cl)]V[NMeV]T[Sar][NMeL]S(tBu)[NMeF][NMeL]D-Piperidide; lactam N-11), with 1.4 ×10⁻⁶ cm/s.

Take `CC[C@H](C)[C@@H]1NC(=O)[C@H](Cc2ccccc2)N(C)C(=O)CN(C)C(=O)C[C@@H](C(=O)N2CCCCC2)NC(=O)[C@H](C(C)C)N(C)C(=O)[C@H](COC(C)(C)C)NC(=O)[C@H](CC(C)C)N(C)C(=O)[C@H](Cc2ccccc2)N(C)C(=O)CN(C)C(=O)[C@H]([C@@H](C)O)NC(=O)[C@H](Cc2ccccc2)N(C)C1=O` [pd205] ([Sar][NMeF]I[NMeF]T[Sar][NMeF][NMeL]S(tBu)[NMeV]D-Piperidide; lactam N-11): the Papp A→B at 180 min stood at 1.8 ×10⁻⁶ cm/s. With `CC(C)C[C@@H]1NC(=O)[C@H](CC(C)C)N(C)C(=O)[C@H](C)N(C)C(=O)[C@@H](C(C)C)NC(=O)C[C@@H](C(=O)N2CCCCC2)NC(=O)[C@H]([C@@H](C)O)NC(=O)[C@H](C)N(C)C(=O)CN(C)C(=O)[C@H](CC(C)C)N(C)C(=O)[C@H](Cc2c[nH]c3ccccc23)NC(=O)[C@H](Cc2ccccc2)N(C)C1=O` [pd100] ([dV][NMeA][NMeL]L[NMeF]W[NMeL][Sar][NMeA]TD-Piperidide; lactam N-11), the Papp A→B at 180 min was determined as 0.11 ×10⁻⁶ cm/s.

Still in this series, the particulars now being: human; Papp, Caco-2 membrane permeability, improved method; read-out: Caco-2.
Regarding `CNC(=O)CC[C@@H]1NC(=O)[C@H](CC(C)C)N(C)C(=O)[C@H](C(C)C)N(C)C(=O)[C@H](Cc2ccccc2)NC(=O)[C@H](Cc2ccccc2)N(C)C(=O)[C@H](CC(C)C)N(C)C(=O)[C@H](CC(C)C)NC(=O)[C@H](CC(C)C)N(C)C(=O)C[C@@H](C(=O)N2CCCCC2)NC(=O)[C@H](CC(C)C)N(C)C(=O)CN(C)C1=O` [pd463] ([NMeL]L[NMeL][NMeF]F[NMeV][NMeL]E(NHMe)[Sar][NMeL]D-Piperidide; lactam N-11), the Papp A→B at 180 min came to 1.2 ×10⁻⁶ cm/s.
